From ChEMBL document CHEMBL1201862, “PubChem BioAssay data set” (2004)
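In this assay, cells in 96-well plates receive the compound at five concentrations for 48 hours. Endpoints are linearly interpolated between the surrounding concentrations. At the GI50, growth is halved.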 Calls of active or inactive are those of the source. Cut-off read from the data, not from the text of the source: active = GI50 up to about 1.1 µM and inactive = higher.

What was measured:
Assay in all cases: DTP human tumour cell line panel, 48 h
A549 = tested on: A549
CAKI-1 = tested on: CAKI-1
EKVX = tested on: EKVX
HL-60 = tested on: HL-60
MDA-MB-435 = tested on: MDA-MB-435
MDA-N = tested on: MDA-N
Malme-3M = tested on: Malme-3M
NCI-H522 = tested on: NCI-H522
OVCAR-5 = tested on: OVCAR-5
OVCAR-8 = tested on: OVCAR-8
SF-539 = tested on: SF-539
SK-MEL-2 = tested on: SK-MEL-2
SN12C = tested on: SN12C
T47D = tested on: T47D
U-251 = tested on: U-251
CCRF-CEM = tested on: CCRF-CEM
HCC 2998 = tested on: HCC 2998
SNB-75 = tested on: SNB-75
NCI-H460 = tested on: NCI-H460

Measured: GI50

CN1C(=O)C23CCCCC2CC1(c1ccccc1)S3 (centres undefined)
inactive: A549 64.7 µM | CAKI-1 68.2 µM | EKVX > 100 µM | HL-60 35.7 µM | MDA-MB-435 > 100 µM | MDA-N > 100 µM | Malme-3M > 100 µM | NCI-H522 76.2 µM | OVCAR-5 > 100 µM | OVCAR-8 > 100 µM | SF-539 > 100 µM | SK-MEL-2 47.5 µM | SN12C 94.4 µM | T47D 42.6 µM | U-251 77.4 µM

O=C(c1nsc(Cl)c1Cl)N1CCCCC1
inactive: A549 > 100 µM | CAKI-1 > 100 µM | CCRF-CEM > 100 µM | EKVX > 100 µM | HCC 2998 > 100 µM | HL-60 > 100 µM | MDA-MB-435 > 100 µM | MDA-N > 100 µM | Malme-3M > 100 µM | OVCAR-5 > 100 µM | OVCAR-8 > 100 µM | SF-539 > 100 µM | SN12C > 100 µM | SNB-75 > 100 µM | U-251 > 100 µM

COC(=O)C1(O)C(c2ccccc2)NC2(C)CCCC21 (centres undefined)
inactive: A549 > 100 µM | CAKI-1 > 100 µM | CCRF-CEM > 100 µM | HL-60 > 100 µM | MDA-MB-435 > 100 µM | MDA-N > 100 µM | Malme-3M > 100 µM | NCI-H522 > 100 µM | OVCAR-8 > 100 µM | SF-539 > 100 µM | SK-MEL-2 > 100 µM | SN12C > 100 µM | SNB-75 > 100 µM | T47D > 100 µM | U-251 > 100 µM

CC1=NN(C(=O)Cc2ccccc2)C(=O)/C1=C\c1cccc(O)c1
inactive: A549 > 100 µM | CAKI-1 > 100 µM | CCRF-CEM > 100 µM | EKVX > 100 µM | HCC 2998 > 100 µM | HL-60 > 100 µM | Malme-3M > 100 µM | NCI-H460 > 100 µM | NCI-H522 > 100 µM | OVCAR-5 > 100 µM | OVCAR-8 > 100 µM | SF-539 > 100 µM | SK-MEL-2 > 100 µM | SN12C > 100 µM | SNB-75 > 100 µM | U-251 > 100 µM

O=C1CCCC[C@H]1C(O)CC1CC(=O)N(c2ccccc2)C(=O)C1 (some centres undefined)
inactive: A549 > 100 µM | CAKI-1 > 100 µM | CCRF-CEM > 100 µM | HCC 2998 > 100 µM | HL-60 > 100 µM | MDA-MB-435 > 100 µM | MDA-N > 100 µM | Malme-3M > 100 µM | NCI-H460 > 100 µM | NCI-H522 > 100 µM | OVCAR-5 > 100 µM | OVCAR-8 > 100 µM | SF-539 > 100 µM | SN12C > 100 µM | SNB-75 > 100 µM | U-251 > 100 µM

CC(=O)OC1C(COC(=O)c2ccccc2)OC(Nc2ncc(-c3ccc(Br)cc3)s2)C(OC(=O)c2ccccc2)C1OC(=O)c1ccccc1 (centres undefined)
inactive: A549 > 100 µM | EKVX > 100 µM | MDA-MB-435 > 100 µM | MDA-N > 100 µM | Malme-3M > 100 µM | NCI-H460 > 100 µM | NCI-H522 > 100 µM | OVCAR-5 > 100 µM | OVCAR-8 > 100 µM | SK-MEL-2 14.5 µM | SN12C > 100 µM | SNB-75 > 100 µM | T47D > 100 µM | U-251 > 100 µM

Cc1cccc2nc3cc(O)cc(O)c3c(O)c12
inactive: A549 > 10 µM | CAKI-1 > 10 µM | CCRF-CEM > 10 µM | MDA-MB-435 > 10 µM | MDA-N > 10 µM | Malme-3M > 10 µM | NCI-H460 > 10 µM | NCI-H522 > 10 µM | OVCAR-5 > 10 µM | OVCAR-8 > 10 µM | SF-539 > 10 µM | SK-MEL-2 > 10 µM | SN12C > 10 µM | SNB-75 4.54 µM | T47D > 10 µM | U-251 > 10 µM

CC(=O)OC1(C)C=CC(=O)C=C1
inactive: A549 > 100 µM | CAKI-1 46 µM | CCRF-CEM 44.1 µM | EKVX 62.5 µM | HCC 2998 > 100 µM | HL-60 27.9 µM | MDA-MB-435 29.9 µM | MDA-N 31.2 µM | NCI-H460 25.9 µM | NCI-H522 10.8 µM | OVCAR-5 40.8 µM | OVCAR-8 24.7 µM | SF-539 18.3 µM | SK-MEL-2 28.2 µM | SN12C 62.7 µM | SNB-75 84.1 µM | U-251 13.3 µM

CSc1ncnc2c1ncn2CCC#N
inactive: A549 > 100 µM | CAKI-1 > 100 µM | CCRF-CEM > 100 µM | EKVX > 100 µM | HL-60 > 100 µM | MDA-MB-435 > 100 µM | MDA-N > 100 µM | Malme-3M > 100 µM | NCI-H460 > 100 µM | NCI-H522 > 100 µM | OVCAR-5 > 100 µM | OVCAR-8 > 100 µM | SF-539 > 100 µM | SN12C > 100 µM | SNB-75 > 100 µM
